One series has as its system Laodelphax striatellus. Description: Insecticidal test against Laodelphax striatellus. The note with it: 500 ppm drug solution; rice seedlings immersed 30 seconds; three-instar insects; eight days after inoculation.
In another series the test system is Plutella xylostella. Briefly: Insecticidal test against Plutella xylostella. Particulars: 500 ppm drug solution; Chinese cabbage seedlings with eggs immersed about 30 sec; six days after immersion; 25° C.
The next series concerns Dirofilaria immitis. Description: Influence evaluation test on the growth of Dirofilaria immitis. Particulars: 168 h, read-out: development inhibition rate from the L3 stage larva to the L4-stage larva.
The subject of series [1] is Frankliniella occidentalis. Briefly: Insecticidal test against Frankliniella occidentalis. Particulars: 500 ppm drug solution sprayed on Phaseolus vulgaris leaf pieces with hatched larvae; four days after treatment.
Source text: [formula] • assessment criteria.
Female adult Frankliniella occidentalis were inoculated onto Phaseolus vulgaris leaf pieces, and after allowing them to lay eggs for one day, the female adults were removed. […] Four days after the treatment, the number of surviving larvae of this species was examined. […] In duplicate.

Some results are limits rather than exact numbers.

Consider 37 compounds from patent US20250122147A1, “ARYL CYCLOHEXANEDIONE DERIVATIVE OR SALT THEREOF, PEST CONTROL AGENT CONTAINING SAME, AND METHOD FOR USE THEREOF” (ADEKA Corporation, priority 2021, published 2025).

Source text for Plutella xylostella: Six days after the immersion in the drug solution, the number of surviving insects was examined. […] In triplicate using 10 per plot.

`CC(C)NC(=S)C1=C(O)CC(c2ccc(C(F)(F)F)cc2)CC1=O` (centres unmarked) [1-84]: the “corrected mortality, rating of assessment” value (from here on “corrected mortality, rating”) in the series on Laodelphax striatellus was “D or higher”.
As to `O=C1CC(c2cncs2)CC(O)=C1C(=O)Nc1ccc(F)cc1` (centres unmarked) [1-152], the “corrected mortality, rating” value with Plutella xylostella and in the series on Laodelphax striatellus was “D or higher” each time.
Regarding `CONC1=C(C(=O)Nc2ccc(F)cc2)C(=O)CC(c2ccc(C(F)(F)F)cc2)C1` (centres unmarked) [1-227, N-(4-fluorophenyl)-5-(methoxyamino)-3-oxo-4′-(trifluoromethyl)-1,2,3,6-tetrahydro-[1,1′-biphenyl]-4-carboxamide], the inhibition at 10 µM in the series on Dirofilaria immitis was at least 50%.
Regarding `O=C1CC(c2ccc(C(F)(F)F)cc2)CC(O)=C1C(=O)Nc1ccc(F)cn1` (centres unmarked) [1-48, N-(5-fluoropyridin-2-yl)-5-hydroxy-3-oxo-4′-(trifluoromethyl)-1,2,3,6-tetrahydro-[1,1′-biphenyl]-4-carboxamide], the “corrected mortality, rating” value with Plutella xylostella was “D or higher”. Further, in the series on Dirofilaria immitis, the inhibition at 10 µM is at least 50%.
For `C[S+]([O-])c1ccc(C2CC(=O)C(C(=O)Nc3ccc(F)cn3)=C(O)C2)cc1` (centres unmarked) [1-164], the “corrected mortality, rating” value with Plutella xylostella and in the series with Laodelphax striatellus was “D or higher” in each case.
With `O=C1CC(c2ccc(C(F)(F)F)nc2)CC(O)=C1C(=O)Nc1ccc(F)cc1` (centres unmarked) [1-68], the “corrected mortality, rating” value with Plutella xylostella and in the series with Laodelphax striatellus was “D or higher” in each case.
With `O=C1CC(c2ccc(C(F)(F)F)nc2)CC(O)=C1C(=O)Nc1ccc(F)nc1` (centres unmarked) [1-150], the “corrected mortality, rating” value (with Laodelphax striatellus; in series [1]) was “D or higher” each time.
As to `O=C1CC(c2ccc(C(F)(F)F)nc2)CC(O)=C1C(=O)Nc1ccc(F)cn1` (centres unmarked) [1-149], the “corrected mortality, rating” value in the series on Plutella xylostella and in the series on Laodelphax striatellus was “D or higher” each time.
With `O=C1CC(c2ccc(Br)cn2)CC(O)=C1C(=O)Nc1ccc(F)cc1` (centres unmarked) [1-161], the “corrected mortality, rating” value in the series with Plutella xylostella and with Laodelphax striatellus was “D or higher” in each case.
In the case of `O=C1CC(c2ccc(C(F)(F)F)cc2)CC(O)=C1C(=O)Nc1cccc2ccccc12` (centres unmarked) [1-39], in the series on Plutella xylostella, the “corrected mortality, rating” value was “D or higher”.
Still for that read-out and setting: in the case of `O=C1CC(c2ccc(S(=O)(=O)C(F)(F)F)cc2)CC(O)=C1C(=O)Nc1ccc(F)cc1` (centres unmarked) [1-209] it was “D or higher”.
Take `CC1(c2ccc(C(F)(F)F)cc2)CC(=O)C(C(=O)Nc2ccc(F)cc2)=C(O)C1` (centres unmarked) [1-139]: the “corrected mortality, rating” value in series [1] is on record as “D or higher”.
`O=C1CC(c2ccc(Br)cn2)CC(O)=C1C(=S)Nc1ccc(F)cc1` (centres unmarked) [1-229]: the “corrected mortality, rating” value in the series with Plutella xylostella is on record as “D or higher”.
The same measure, in the same setting: in the case of `O=C1CC(c2ccc(C(F)(F)F)c(Cl)c2)CC(O)=C1C(=O)Nc1ccc(F)cc1` (centres unmarked) [1-3] it was “D or higher”; in that of `O=C1CC(c2ccc(C(F)(F)F)cc2)CC(O)=C1C(=S)Nc1ccc(F)cn1` (centres unmarked) [1-108], “D or higher”; in that of `O=C1CC(c2ccc(C(F)(F)F)cc2)CC(O)=C1C(=O)Nc1ccc(F)nc1` (centres unmarked) [1-146], “D or higher”.
Same read-out and setting: in the case of `O=C1CC(c2ccc(C(F)(F)F)cc2)CC(O)=C1C(=O)Nc1cccc([N+](=O)[O-])c1` (centres unmarked) [1-35] it was “D or higher”; in that of `O=C1CC(c2ccc(C(F)(F)F)cc2)CC(O)=C1C(=O)Nc1ccc(Oc2ccccc2)cc1` (centres unmarked) [1-54], “D or higher”.
As to `O=C1CC(c2ccc(C(F)(F)F)cc2)CC(O)=C1C(=O)Nc1nccs1` (centres unmarked) [1-47, 5-hydroxy-3-oxo-N-(thiazol-2-yl)-4′-(trifluoromethyl)-1,2,3,6-tetrahydro-[1,1′-biphenyl]-4-carboxamide], the inhibition at 10 µM in the series on Dirofilaria immitis was at least 50%.
`O=C1CC(c2ccc(C(F)(F)F)cc2)CC(O)=C1C(=O)Nc1ccc(F)c(F)c1` (centres unmarked) [1-19]: the “corrected mortality, rating” value in the series on Plutella xylostella is on record as “D or higher”.
As for `O=C1CC(c2ccc(C(F)(F)F)cc2)CC(O)=C1C(=S)Nc1ccccc1F` (centres unmarked) [1-94], the “corrected mortality, rating” value with Plutella xylostella was “D or higher”.
Same read-out and setting: for `O=C1CC(c2ccc(SC(F)(F)F)cc2)CC(O)=C1C(=O)Nc1ccc(F)cc1` (centres unmarked) [1-66] the value was “D or higher”; for `O=C1CC(c2ccc(C(F)(F)F)cc2)CC(O)=C1C(=O)Nc1ccc(S(F)(F)(F)(F)F)cc1` (centres unmarked) [1-184], “D or higher”.
On the same count and under the same terms, in the case of `O=C1CC(c2ccc(C(F)(F)F)cc2)CC(O)=C1C(=O)Nc1c(Cl)cccc1Cl` (centres unmarked) [1-23] it was “D or higher”.
On the same count and under the same terms, in the case of `CS(=O)(=O)c1ccc(C2CC(=O)C(C(=O)Nc3ccc(F)cn3)=C(O)C2)cc1` (centres unmarked) [1-165] it was “D or higher”; in that of `O=C1CC(c2ccc(C(F)(F)F)cc2)CC(O)=C1C(=O)Nc1c(F)c(F)c(F)c(F)c1F` (centres unmarked) [1-45], “D or higher”; in that of `Cc1ccc(NC(=O)C2=C(O)CC(c3ccc(C(F)(F)F)cc3)CC2=O)cc1` (centres unmarked) [1-15], “D or higher”.
Regarding `O=C1CC(c2ccc(C(F)(F)F)cc2)CC(O)=C1C(=S)Nc1ccccc1` (centres unmarked) [1-93], the “corrected mortality, rating” value in the series on Plutella xylostella is “D or higher”.
Consider `O=C1CC(c2ccc(C(F)(F)F)cc2)CC(SCc2ccccc2)=C1C(=O)Nc1ccc(F)cc1` (centres unmarked) [1-225], for which the “corrected mortality, rating” value in the series on Plutella xylostella and in the series with Laodelphax striatellus was “D or higher” each time.
Take `O=C1CC(c2ccc(C(F)(F)F)cc2)CC(O)=C1C(=O)Nc1ccc(Cl)cc1Cl` (centres unmarked) [1-22]: the “corrected mortality, rating” value in the series with Plutella xylostella is “D or higher”.
Same read-out and setting: in the case of `O=C1CC(c2ccc(C(F)(F)F)cc2)CC(O)=C1C(=O)Nc1cccc(C(F)(F)F)c1` (centres unmarked) [1-30] it was “D or higher”.
For `O=C1CC(c2ccc(C(F)(F)F)nc2)CC(O)=C1C(=O)Nc1ccc(OC(F)(F)F)cc1` (centres unmarked) [1-70], in the series with Plutella xylostella, the “corrected mortality, rating” value is “D or higher”.
For the compound `O=C1CC(c2ccc3c(c2)OCO3)CC(O)=C1C(=O)Nc1ccc(F)cc1` (centres unmarked) [1-222], the “corrected mortality, rating” value with Plutella xylostella is reported as “D or higher”.
With `O=C1CC(c2ccc(C(F)(F)F)cc2)CC(O)=C1C(=O)Nc1ccc(OC(F)(F)F)cc1` (centres unmarked) [1-9], the “corrected mortality, rating” value (with Plutella xylostella; with Laodelphax striatellus; in series [1]) was “D or higher” throughout.
For `COc1ccc(NC(=O)C2=C(O)CC(c3ccc(C(F)(F)F)cc3)CC2=O)cc1` (centres unmarked) [1-8], the “corrected mortality, rating” value in the series with Plutella xylostella is reported as “D or higher”.
The same measure, in the same setting: in the case of `O=C1CC(c2ccc(C(F)(F)F)cc2)CC(O)=C1C(=O)Nc1cccc2ncccc12` (centres unmarked) [1-156] it was “D or higher”; in that of `O=C1CC(c2ccc(C(F)(F)F)cc2)CC(O)=C1C(=O)Nc1ccc(C(F)(F)F)cn1` (centres unmarked) [1-142], “D or higher”.

The term inhibition denotes the share of the control response that was lost under treatment.
